Tested on: human HSPC
Experiment: Flavopiridol treatment of human HSPC, HSPC expansion in culture (FACS, total HSPC expansion over time)
Type: cell-based
Conditions: 100 nM, similarly to MLLT3 overexpression
Source text: We investigated whether an effect on transcription elongation by a different factor might change the effect. We determined that Treatment of human HSPC with Flavopiridol, a regulator of transcription elongation machinery, expands HSPC in culture.

Question: For `CN1CC[C@H](c2c(O)cc(O)c3c(=O)cc(-c4ccccc4Cl)oc23)[C@H](O)C1` [Flavopiridol], which “HSPC expansion in culture” value is on record?
Answer: sustained HSPC expansion in culture
